Read-outs that look alike come from different tables or passages of the source.
What was measured:
[1] = tested on: cyclin D1; assay: Cyclin D1 percentage degradation in Calu-1 cells (immunoblotting); type: cell-based; conditions: 16 hours
Method in brief: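 Cells were rinsed once in cold PBS and lysed in cold RIPA buffer containing protease and phosphatase inhibitors, with gentle agitation at 4° C. for 30 min. Lysates were spun at 13,000 rpm for 10 min at 4° C., protein was measured by BCA, and samples were boiled in Laemmli buffer at 99° C. for 5 min before SDS-PAGE immunoblotting.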

[2] = target: T1, CDK4 (Homo sapiens, UniProt P11802); assay: CDK4 percentage degradation in Calu-1 cells (immunoblotting); type: cell-based; conditions: for inhibition at 0.2 µM: read-out: CDK4 Degradation (200 nM); for inhibition at 10 µM: read-out: CDK4 Degradation (10 μM)
T1 construct: endogenous in cells; host or cells: Calu-1
Method in brief: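 Cultured cells were rinsed once in cold PBS and lysed in cold RIPA buffer containing protease and phosphatase inhibitors, with gentle agitation at 4° C. for 30 min. Lysates were centrifuged at 13,000 rpm for 10 min at 4° C., and protein was quantified by BCA. Samples were then separated by SDS-PAGE, detected with ECL, and the CDK4 bands quantified in Image Lab.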

T1 sequence (P11802 2-303 limits assumed): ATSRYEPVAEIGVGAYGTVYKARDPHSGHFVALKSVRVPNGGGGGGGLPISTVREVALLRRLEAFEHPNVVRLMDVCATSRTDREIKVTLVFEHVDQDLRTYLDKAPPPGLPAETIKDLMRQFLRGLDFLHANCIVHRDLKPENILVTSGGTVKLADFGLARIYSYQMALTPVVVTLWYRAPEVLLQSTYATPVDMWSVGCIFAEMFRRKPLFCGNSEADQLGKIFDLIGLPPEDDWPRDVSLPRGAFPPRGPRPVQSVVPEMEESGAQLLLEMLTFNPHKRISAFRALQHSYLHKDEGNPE
T1 sequence (P24385 whole entry partner): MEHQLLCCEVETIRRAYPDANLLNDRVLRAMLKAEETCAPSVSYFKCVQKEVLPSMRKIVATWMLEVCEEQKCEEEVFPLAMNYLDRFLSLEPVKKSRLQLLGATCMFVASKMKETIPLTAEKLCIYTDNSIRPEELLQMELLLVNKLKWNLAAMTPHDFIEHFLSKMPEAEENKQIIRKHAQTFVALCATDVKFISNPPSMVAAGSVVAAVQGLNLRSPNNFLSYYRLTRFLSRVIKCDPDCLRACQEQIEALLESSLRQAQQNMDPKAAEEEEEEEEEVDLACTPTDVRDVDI
T1 sequence (Q16531 2-1140 limits assumed, further chain): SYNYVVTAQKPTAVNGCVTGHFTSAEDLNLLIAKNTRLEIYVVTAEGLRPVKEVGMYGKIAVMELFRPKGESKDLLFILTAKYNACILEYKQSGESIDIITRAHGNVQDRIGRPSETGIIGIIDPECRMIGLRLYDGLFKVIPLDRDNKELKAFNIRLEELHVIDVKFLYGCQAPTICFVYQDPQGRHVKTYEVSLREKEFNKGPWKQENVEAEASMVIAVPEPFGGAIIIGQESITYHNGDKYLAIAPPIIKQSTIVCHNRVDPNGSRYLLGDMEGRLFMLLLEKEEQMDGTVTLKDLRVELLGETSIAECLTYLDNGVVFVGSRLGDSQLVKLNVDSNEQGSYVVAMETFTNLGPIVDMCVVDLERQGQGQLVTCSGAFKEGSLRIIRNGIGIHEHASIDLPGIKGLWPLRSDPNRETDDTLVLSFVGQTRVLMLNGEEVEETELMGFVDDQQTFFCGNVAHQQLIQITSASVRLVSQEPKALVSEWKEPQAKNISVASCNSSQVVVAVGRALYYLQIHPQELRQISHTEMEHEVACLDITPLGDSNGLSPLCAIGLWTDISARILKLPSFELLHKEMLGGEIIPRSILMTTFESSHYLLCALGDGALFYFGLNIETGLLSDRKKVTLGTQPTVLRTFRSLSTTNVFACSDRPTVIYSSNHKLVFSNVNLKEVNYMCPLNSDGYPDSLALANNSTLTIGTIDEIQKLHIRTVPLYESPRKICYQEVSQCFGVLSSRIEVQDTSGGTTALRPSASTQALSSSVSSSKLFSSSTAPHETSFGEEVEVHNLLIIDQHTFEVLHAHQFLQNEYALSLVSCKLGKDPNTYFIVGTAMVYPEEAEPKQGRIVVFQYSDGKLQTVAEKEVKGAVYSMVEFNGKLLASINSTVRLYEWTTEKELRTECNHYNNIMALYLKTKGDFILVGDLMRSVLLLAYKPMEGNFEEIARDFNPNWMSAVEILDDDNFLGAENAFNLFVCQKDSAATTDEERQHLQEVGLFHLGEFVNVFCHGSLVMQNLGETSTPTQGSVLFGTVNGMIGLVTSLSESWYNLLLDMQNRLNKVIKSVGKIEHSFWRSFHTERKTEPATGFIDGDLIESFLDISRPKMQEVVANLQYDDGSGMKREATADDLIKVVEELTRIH

Row | inhibition at 10 µM ([2]; Calu-1 cells, 16 hours) | inhibition at 0.2 µM ([2]; Calu-1 cells, 200 nM, 16 hours) | Compound | CyclinD1 Degradation (200 nM) [1] | inhibition at 0.2 µM ([2]; Calu-1, 16 h) | CyclinD1 Degradation (10 μM) [1]
1 | – | – | CC(=O)c1c(C)c2cnc(Nc3ccc(N4CCN(C(=O)CCOCCOCCOCCC(=O)Nc5ccccc5C(=O)Nc5nc(C)c(C)s5)CC4)cn3)nc2n(C2CCCC2)c1=O [CPD-357, 2-(3-(2-(2-(3-(4-(6-((6-Acetyl-8-cyclopentyl-5-methyl-7-oxo-7,8-dihydropyrido[2,3-d]pyrimidin-2-yl)amino)pyridin-3-yl)piperazin-1-yl)-3-oxopropoxy)ethoxy)ethoxy)propanamido)-N-(4,5-dimethylthiazol-2-yl)benzamide] | A (protein percentage degradation >=80%) | 50 to 80% | –
2 | < 30% | – | Cc1nc(NC(=O)c2ccccc2NC(=O)CNC(=O)CN2CCN(c3ccc(Nc4ncc5cc6n(c5n4)C4(CCCCC4)CNC6=O)nc3)CC2)sc1C [CPD-314, N-(4,5-Dimethylthiazol-2-yl)-2-(2-(2-(4-(6-((6′-oxo-7′,8′-dihydro-6′H-spiro[cyclohexane-1,9′-pyrazino[1′,2′:1,5]pyrrolo[2,3-d]pyrimidin]-2′-yl)amino)pyridin-3-yl)piperazin-1-yl)acetamido)acetamido)benzamide] | – | – | D (protein percentage degradation < 30%)
3 | – | < 30% | CC(=O)c1c(C)c2cnc(Nc3ccc(N4CCN(CC(=O)NCCOCCOCCOCCOCCOCCNc5ccc(C(=O)Nc6nc(-c7ccccc7)cs6)c(C)c5)CC4)cn3)nc2n(C2CCCC2)c1=O [CPD-007, 4-((1-(4-(6-((6-Acetyl-8-cyclopentyl-5-methyl-7-oxo-7,8-dihydropyrido[2,3-d]pyrimidin-2-yl)amino)pyridin-3-yl)piperazin-1-yl)-2-oxo-6,9,12,15,18-pentaoxa-3-azaicosan-20-yl)amino)-2-methyl-N-(4-phenylthiazol-2-yl)benzamide] | D (protein percentage degradation <30%) | – | –
4 | – | – | CC(=O)c1c(C)c2cnc(Nc3ccc(N4CCN(CCCCCCCC(=O)Nc5ccccc5C(=O)Nc5ccc(C)cn5)CC4)cn3)nc2n(C2CCCC2)c1=O [CPD-183, 2-(8-(4-(6-((6-Acetyl-8-cyclopentyl-5-methyl-7-oxo-7,8-dihydropyrido[2,3-d]pyrimidin-2-yl)amino)pyridin-3-yl)piperazin-1-yl)octanamido)-N-(5-methylpyridin-2-yl)benzamide] | D (protein percentage degradation <30%) | < 30% | –
5 | – | 50 to 80% | CC(=O)c1c(C)c2cnc(Nc3ccc(N4CCN(CC(=O)NCCCCCNc5cc(Cl)ccc5C(=O)Nc5ccc(N(C)C)nn5)CC4)cn3)nc2n(C2CCCC2)c1=O [CPD-374, 2-((5-(2-(4-(6-((6-Acetyl-8-cyclopentyl-5-methyl-7-oxo-7,8-dihydropyrido[2,3-d]pyrimidin-2-yl)amino)pyridin-3-yl)piperazin-1-yl)acetamido)pentyl)amino)-4-chloro-N-(6-(dimethylamino)pyridazin-3-yl)benzamide] | A (protein percentage degradation >=80%) | – | –
6 | 50 to 80% | – | Cc1nc(NC(=O)c2ccccc2NC(=O)CCOCCOCCOCCOCCNC(=O)CN2CCN(c3ccc(Nc4ncc5cc6n(c5n4)C4(CCCCC4)CNC6=O)nc3)CC2)sc1C [CPD-325, N-(4,5-Dimethylthiazol-2-yl)-2-(2-oxo-1-(4-(6-((6′-oxo-7′,8′-dihydro-6′H-spiro[cyclohexane-1,9′-pyrazino[1′,2′:1,5]pyrrolo[2,3-d]pyrimidin]-2′-yl)amino)pyridin-3-yl)piperazin-1-yl)-6,9,12,15-tetraoxa-3-azaoctadecan-18-amido)benzamide] | – | – | A (protein percentage degradation >= 80%)
7 | – | < 30% | CC(=O)c1c(C)c2cnc(Nc3ccc(N4CCN(CC(=O)NCCOCCOCCC(=O)Nc5ccccc5C(=O)Nc5ncc(C)[nH]5)CC4)cn3)nc2n(C2CCCC2)c1=O [CPD-064, 2-(3-(2-(2-(2-(4-(6-((6-Acetyl-8-cyclopentyl-5-methyl-7-oxo-7,8-dihydropyrido[2,3-d]pyrimidin-2-yl)amino)pyridin-3-yl)piperazin-1-yl)acetamido)ethoxy)ethoxy)propanamido)-N-(5-methyl-1H-imidazol-2-yl)benzamide] | D (protein percentage degradation <30%) | – | –
8 | < 30% | – | Cc1nc(NC(=O)c2ccccc2NC(=O)CCCNC(=O)CN2CCN(Cc3ccc(Nc4ncc(F)c(-c5cc(F)c6nc(C)n(C(C)C)c6c5)n4)nc3)CC2)sc1C [CPD-274, N-(4,5-Dimethylthiazol-2-yl)-2-(4-(2-(4-((6-((5-fluoro-4-(4-fluoro-1-isopropyl-2-methyl-1H-benzo[d]imidazol-6-yl)pyrimidin-2-yl)amino)pyridin-3-yl)methyl)piperazin-1-yl)acetamido)butanamido)benzamide] | – | – | B (protein percentage degradation < 80%, and >= 50%)
9 | < 30% | – | Cc1nc(NC(=O)c2ccccc2NC(=O)CCNC(=O)CN2CCN(Cc3ccc(Nc4ncc(F)c(-c5cc(F)c6nc(C)n(C(C)C)c6c5)n4)nc3)CC2)sc1C [CPD-273, N-(4,5-Dimethylthiazol-2-yl)-2-(3-(2-(4-((6-((5-fluoro-4-(4-fluoro-1-isopropyl-2-methyl-1H-benzo[d]imidazol-6-yl)pyrimidin-2-yl)amino)pyridin-3-yl)methyl)piperazin-1-yl)acetamido)propanamido)benzamide] | – | – | D (protein percentage degradation < 30%)
10 | – | – | CC(=O)c1c(C)c2cnc(Nc3ccc(N4CCN(C(=O)CCOCCOCCOCCNc5ccc(C)c(C(=O)Nc6nc(C)c(C)s6)c5)CC4)cn3)nc2n(C2CCCC2)c1=O [CPD-111, 5-((2-(2-(2-(3-(4-(6-((6-Acetyl-8-cyclopentyl-5-methyl-7-oxo-7,8-dihydropyrido[2,3-d]pyrimidin-2-yl)amino)pyridin-3-yl)piperazin-1-yl)-3-oxopropoxy)ethoxy)ethoxy)ethyl)amino)-N-(4,5-dimethylthiazol-2-yl)-2-methylbenzamide] | D (protein percentage degradation <30%) | < 30% | –
11 | – | < 30% | CC(=O)c1c(C)c2cnc(Nc3ccc(N4CCN(CC(=O)NCCOCCOCCOCCOCCOCCNc5ccc(C(=O)Nc6ncc(C(C)C)s6)c(C)c5)CC4)cn3)nc2n(C2CCCC2)c1=O [CPD-006, 4-((1-(4-(6-((6-Acetyl-8-cyclopentyl-5-methyl-7-oxo-7,8-dihydropyrido[2,3-d]pyrimidin-2-yl)amino)pyridin-3-yl)piperazin-1-yl)-2-oxo-6,9,12,15,18-pentaoxa-3-azaicosan-20-yl)amino)-N-(5-isopropylthiazol-2-yl)-2-methylbenzamide] | D (protein percentage degradation <30%) | – | –
12 | – | 50 to 80% | CNc1ccc(NC(=O)CCOCCOCCNC(=O)CN2CCN(c3ccc(Nc4ncc5c(C)c(C(C)=O)c(=O)n(C6CCCC6)c5n4)nc3)CC2)c(C(=O)Nc2nc(C)c(C)s2)c1 [CPD-150, 2-(3-(2-(2-(2-(4-(6-((6-Acetyl-8-cyclopentyl-5-methyl-7-oxo-7,8-dihydropyrido[2,3-d]pyrimidin-2-yl)amino)pyridin-3-yl)piperazin-1-yl)acetamido)ethoxy)ethoxy)propanamido)-N-(4,5-dimethylthiazol-2-yl)-5-(methylamino)benzamide] | A (protein percentage degradation >=80%) | – | –
13 | – | > 80% | CC(=O)c1c(C)c2cnc(Nc3ccc(N4CCN(CC(=O)NCCCCCCCNc5cccc(C(=O)Nc6cc(C)n(C)n6)c5C)CC4)cn3)nc2n(C2CCCC2)c1=O [CPD-329, 3-((7-(2-(4-(6-((6-Acetyl-8-cyclopentyl-5-methyl-7-oxo-7,8-dihydropyrido[2,3-d]pyrimidin-2-yl)amino)pyridin-3-yl)piperazin-1-yl)acetamido)heptyl)amino)-N-(1,5-dimethyl-1H-pyrazol-3-yl)-2-methylbenzamide] | A (protein percentage degradation >=80%) | – | –
14 | – | > 80% | CCc1nc(NC(=O)c2ccccc2NC(=O)CCOCCOCCNC(=O)CN2CCN(c3ccc(Nc4ncc5c(C)c(C(C)=O)c(=O)n(C6CCCC6)c5n4)nc3)CC2)sc1C [CPD-075, 2-(3-(2-(2-(2-(4-(6-((6-Acetyl-8-cyclopentyl-5-methyl-7-oxo-7,8-dihydropyrido[2,3-d]pyrimidin-2-yl)amino)pyridin-3-yl)piperazin-1-yl)acetamido)ethoxy)ethoxy)propanamido)-N-(4-ethyl-5-methylthiazol-2-yl)benzamide] | A (protein percentage degradation >=80%) | – | –
15 | – | 50 to 80% | CC(=O)c1c(C)c2cnc(Nc3ccc(N4CCN(CC(=O)NCCOCCOCCC(=O)Nc5c(C(=O)Nc6ccc(C)cn6)ccc6[nH]ccc56)CC4)cn3)nc2n(C2CCCC2)c1=O [CPD-361, 4-(3-(2-(2-(2-(4-(6-((6-acetyl-8-cyclopentyl-5-methyl-7-oxo-7,8-dihydropyrido[2,3-d]pyrimidin-2-yl)amino)pyridin-3-yl)piperazin-1-yl)acetamido)ethoxy)ethoxy)propanamido)-N-(5-methylpyridin-2-yl)-1H-indole-5-carboxamide] | A (protein percentage degradation >=80%) | – | –
16 | – | 50 to 80% | CC(=O)c1c(C)c2cnc(Nc3ccc(N4CCN(CC(=O)NCCOCCOCCC(=O)Nc5ccccc5C(=O)Nc5ccc(C(F)(F)F)cn5)CC4)cn3)nc2n(C2CCCC2)c1=O [CPD-084, 2-(3-(2-(2-(2-(4-(6-((6-Acetyl-8-cyclopentyl-5-methyl-7-oxo-7,8-dihydropyrido[2,3-d]pyrimidin-2-yl)amino)pyridin-3-yl)piperazin-1-yl)acetamido)ethoxy)ethoxy)propanamido)-N-(5-(trifluoromethyl)pyridin-2-yl)benzamide] | A (protein percentage degradation >=80%) | – | –
